The first assay has as its target T1, Z A1AT (Homo sapiens, UniProt P01009, E366K).
T1 construct: expressed in transfected cells; host or cells: HEK-Z (human embryonic kidney cells stably transfected with the human Z A1AT gene)
The assay is described as follows: A1AT cell secretion assay using HEK-Z cells. Type of assay: cell-based. The settings on record: 300 nM, 48 h, supernatant A1AT by ELISA, read-out: Median A1AT % increase over vehicle at 300 nM. How it is done:
HEK-Z cells, a human embryonic kidney cell line stably transfected with the human Z A1AT gene, were plated into 96 well plates (3.0×10^5 cells/ml with 200 μl of media/well) overnight at 37° C. in a humidified atmosphere containing 5% CO2. Following incubation cells were washed with 200 μl serum-free media three times and media was replaced with treatments in quadruplicate using serum free media containing either vehicle, 10 μM suberanilohydroxamic acid (SAHA) or a compound of the invention (at concentrations of 10, 33, 100 and 333 nM) for 48 h in a 37° C. incubator in a final volume of 200 μl. At the end of the incubation step the supernatants were removed from the wells, centrifuged at 1000×g at 4° C. for 10 min and were assayed for human A1AT levels by ELISA (Human Serpin A1/α1-antitrypsin duo set ELISA, R& D Systems, DY1268) per manufacturer's instructions.
Briefly, a 96 well plate was coated with human A1AT capture antibody overnight at room temperature (1:180 dilution from stock, 100 μl final volume/well). The capture antibody was then removed and wells washed three times with 300 μl wash buffer (0.05% Tween 20 in PBS) and then 200 μl reagent diluent ([…]) was incubated in each well for 1 h at room temperature. Diluted samples, standards (125, 250, 500, 1000, 2000, 4000 and 8000 pg/ml A1AT) or blanks were then added to each well in duplicate and the plates were covered with a plate sealer and left at room temperature for 2 h. At the end of the sample incubation step, samples were removed and all wells washed as previously and 100 μl detection antibody (1:180 dilution from stock) was added to each well and incubated for a further 2 h at room temperature. Following incubation with detection antibody, supernatant was removed and wells were washed as previously and 100 μl streptavidin-HRP solution (1:200 dilution from stock) was added to each well for 20 min in the dark. After which, 50 μl stop solution (2M H2SO4) was added and optical density (OD) of each well was read at 450 nm with 570 nm blank subtracted from each well using a microplate reader. A 4-parameter logistic curve was constructed using GraphPad Prism 7 and A1AT concentrations were determined in each sample by interpolation from a standard curve and multiplying by the appropriate dilution factor.
In general terms: In an ELISA, binding on a coated surface is turned into a signal by an enzyme label.
T1 sequence (P01009 25-418 E366K): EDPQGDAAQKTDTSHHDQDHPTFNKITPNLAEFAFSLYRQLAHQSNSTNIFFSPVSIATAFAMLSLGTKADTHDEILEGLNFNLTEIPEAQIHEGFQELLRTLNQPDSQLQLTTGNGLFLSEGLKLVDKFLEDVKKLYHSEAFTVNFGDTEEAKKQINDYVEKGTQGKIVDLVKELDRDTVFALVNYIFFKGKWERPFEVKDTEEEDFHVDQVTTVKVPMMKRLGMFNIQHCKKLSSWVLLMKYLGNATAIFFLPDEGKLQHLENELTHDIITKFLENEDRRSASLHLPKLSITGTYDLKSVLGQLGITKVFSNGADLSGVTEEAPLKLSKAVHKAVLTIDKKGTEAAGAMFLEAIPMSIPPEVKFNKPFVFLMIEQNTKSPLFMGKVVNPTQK
For the compound `CN(C)C(=O)c1ccc(Cn2ccc(=O)[nH]c2=O)cc1` [Example 1, 4-((2,4-dioxo-3,4-dihydropyrimidin-1(2H)-yl)methyl)-N,N-dimethylbenzamide], the activation at 0.3 µM came to 130%.
The same measure, in the same setting: as for `CNC(=O)c1ccc(Cn2ccc(=O)[nH]c2=O)cc1` [Example 2, 4-((2,4-dioxo-3,4-dihydropyrimidin-1(2H)-yl)methyl)-N-methylbenzamide], the figure is 175%; as for `CC(C)NC(=O)c1ccc(Cn2ccc(=O)[nH]c2=O)cc1` [Example 3, 4-((2,4-dioxo-3,4-dihydropyrimidin-1(2H)-yl)methyl)-N-isopropylbenzamide], 190%.
In the case of `O=C(NCc1ccc(F)cc1)c1ccc(Cn2ccc(=O)[nH]c2=O)cc1` [Example 4, 4-((2,4-dioxo-3,4-dihydropyrimidin-1(2H)-yl)methyl)-N-(4-fluorobenzyl)benzamide], the activation at 0.3 µM came out at 170%.
On the same count and under the same terms, the same measure for `CN(C)C(=O)c1ccc(Cn2c(=O)cc[nH]c2=O)cc1` [Example 5, 4-((2,6-dioxo-3,6-dihydropyrimidin-1(2H)-yl)methyl)-N,N-dimethylbenzamide]: 140%.
Consider `CCN(C)C(=O)c1ccc(Cn2c(=O)cc[nH]c2=O)cc1` [Example 6, 4-((2,6-dioxo-3,6-dihydropyrimidin-1(2H)-yl)methyl)-N-ethyl-N-methylbenzamide], for which the activation at 0.3 µM was found to be 190%.
On to `CC(C)N(C)C(=O)c1ccc(Cn2c(=O)cc[nH]c2=O)cc1` [Example 7, 4-((2,6-dioxo-3,6-dihydropyrimidin-1(2H)-yl)methyl)-N-isopropyl-N-methylbenzamide], for which the activation at 0.3 µM came out at 170%.
The same measure, in the same setting: the same measure for `CN(Cc1ccccc1)C(=O)c1ccc(Cn2c(=O)cc[nH]c2=O)cc1` [Example 8, N-benzyl-4-((2,6-dioxo-3,6-dihydropyrimidin-1(2H)-yl)methyl)-N-methylbenzamide]: 175%; for `CN(CC(F)(F)F)C(=O)c1ccc(Cn2c(=O)cc[nH]c2=O)cc1` [Example 9, 4-((2,6-dioxo-3,6-dihydropyrimidin-1(2H)-yl)methyl)-N-methyl-N-(2,2,2-trifluoroethyl)benzamide]: 180%.

A further assay deals with wild-type A1AT (M) (Homo sapiens, UniProt P01009).
Sequence of wild-type A1AT (M) (P01009 25-418): as the sequence (P01009 25-418 E366K) above, with K342E counted along it
Assay: not given
Conditions: cited from earlier work.
Turning to `O=S(=O)(O)c1cccc2c(-c3ccc(Nc4ccccc4)c4c(S(=O)(=O)O)cccc34)ccc(Nc3ccccc3)c12` [bis-ANS, 4,4′-dianilino-1,1′-binaphthyl-5,5′-disulfonate], the “binding to wild-type A1AT (M)” value is “not to wild-type A1AT (M)”.

Values taken from patent US12291507B2, “Compounds and their use for the treatment of ALPHA1-antitrypsin deficiency” (CENTESSA PHARMACEUTICALS (UK) LIMITED, priority 2019, dated 2025).
